From patent publication US20090221567A1, “MUSCARINIC RECEPTOR AGONISTS, COMPOSITIONS, METHODS OF TREATMENT THEREOF, AND PROCESSES FOR PREPARATION THEREOF 177” (ASTRAZENECA AB, priority 2008, published 2009)
pEC50: −log10 of the molar value.

Tests used:
[1] = target: T1, hM3 (human Muscarinic receptor subtype 3) (Homo sapiens, UniProt P20309); experiment: Human M3 calcium mobilization FLIPR assay; format: cell-based; settings: receptor expressed in CHO cells, intracellular Ca2+ release
T1 construct: expressed in transfected cells; host or cells: CHO cells (Chinese hamster ovary cells, ATCC)
T1 sequence (P20309 whole entry): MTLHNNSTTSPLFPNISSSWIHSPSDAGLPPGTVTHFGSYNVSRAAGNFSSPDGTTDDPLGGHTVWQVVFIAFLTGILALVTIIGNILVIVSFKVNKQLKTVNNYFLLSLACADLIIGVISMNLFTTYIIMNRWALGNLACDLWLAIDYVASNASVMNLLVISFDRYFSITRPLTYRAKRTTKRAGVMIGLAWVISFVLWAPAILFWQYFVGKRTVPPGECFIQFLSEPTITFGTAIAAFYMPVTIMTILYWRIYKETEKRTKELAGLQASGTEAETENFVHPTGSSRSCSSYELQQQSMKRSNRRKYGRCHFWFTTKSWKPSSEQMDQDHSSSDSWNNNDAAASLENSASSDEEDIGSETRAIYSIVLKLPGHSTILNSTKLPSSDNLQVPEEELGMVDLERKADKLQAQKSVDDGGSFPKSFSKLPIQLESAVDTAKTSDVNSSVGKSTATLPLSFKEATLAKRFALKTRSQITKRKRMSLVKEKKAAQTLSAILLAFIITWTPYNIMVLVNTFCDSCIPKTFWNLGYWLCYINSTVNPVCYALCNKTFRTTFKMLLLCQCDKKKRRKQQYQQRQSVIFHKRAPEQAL
Protocol: (§1) The compound activity in the present invention (EC50 or IC50) is measured using a 384 plate-based imaging assay that monitors drug induced intracellular Ca^2+ release in whole cells. Activation of hM1 (human Muscarinic receptor subtype 1, gene bank access NM_000738), rM1 (rat Muscarinic receptor subtype 1, gene bank access NM_080773), hM3 (human Muscarinic receptor subtype 3, gene bank access NM_000740NM_000740) and hM5 (human Muscarinic receptor subtype 5, gene bank access NM_0121258), receptors expressed in CHO cells (Chinese hamster ovary cells, ATCC) is quantified in a Molecular Devices FLIPR IITM instrument as an increase in fluorescent signal. Inhibition of hM3 and hM5 by compounds is determined by the decrease in fluorescent signal in response to 2 nM acetylcholine activation.
(§2) Prior to experiment, the cell culture medium is removed from the plates by inversion. […] Plates are incubated at 37° C. for 60 minutes prior to start the experiment. The incubation is terminated by washing the cells four times in assay buffer, leaving a residual 25 μl buffer per well. Cell plates are then transferred to the FLIPR, ready for compound additions.
(§3) The day of experiment, acetylcholine and compounds are diluted in assay buffer in three-fold concentration range (10 points serial dilution) for addition by FLIPR instrument. For all calcium assays, a baseline reading is taken for 10 seconds followed by the addition of 12.5 μl of compounds, resulting in a total well volume of 37.5 μl. Data is collected every second for 60 pictures and then every 6 seconds for 20 pictures prior to the addition of agonist. For hM3 and hM5, before agonist addition, a second baseline reading is taken for 10 seconds followed by the addition of 12.5 μl of agonist or buffer, producing a final volume of 50 μl. After agonist stimulation, the FLIPR continues to collect data every second for 60 pictures and then every 6 seconds for 20 pictures. The fluorescence emission is read using filter 1 (emission 510-570 nm) by the FLIPR on board CCD camera.
(§4) Calcium mobilization output data are calculated as the maximal relative fluorescence unit (RFU) minus the minimal value for both compound and agonist reading frame (except for hM1 and rM1 using only the maximal RFU). Data are analyzed using sigmoidal fits of a non-linear curve-fitting program (XLfit version 4.2.2 Excel add-in version 4.2.2 build 18 math 1Q version 2.1.2 build 18). All pEC50 and pIC50 values are reported as arithmetic means±standard error of mean of ‘n’ independent experiments.

[2] = target: T2, hM5 (human Muscarinic receptor subtype 5) (Homo sapiens, UniProt P08912); experiment: Human M5 calcium mobilization FLIPR assay; format: cell-based; settings: receptor expressed in CHO cells, intracellular Ca2+ release
T2 construct: expressed in transfected cells; host or cells: CHO cells (Chinese hamster ovary cells, ATCC)
T2 sequence (P08912 1-532): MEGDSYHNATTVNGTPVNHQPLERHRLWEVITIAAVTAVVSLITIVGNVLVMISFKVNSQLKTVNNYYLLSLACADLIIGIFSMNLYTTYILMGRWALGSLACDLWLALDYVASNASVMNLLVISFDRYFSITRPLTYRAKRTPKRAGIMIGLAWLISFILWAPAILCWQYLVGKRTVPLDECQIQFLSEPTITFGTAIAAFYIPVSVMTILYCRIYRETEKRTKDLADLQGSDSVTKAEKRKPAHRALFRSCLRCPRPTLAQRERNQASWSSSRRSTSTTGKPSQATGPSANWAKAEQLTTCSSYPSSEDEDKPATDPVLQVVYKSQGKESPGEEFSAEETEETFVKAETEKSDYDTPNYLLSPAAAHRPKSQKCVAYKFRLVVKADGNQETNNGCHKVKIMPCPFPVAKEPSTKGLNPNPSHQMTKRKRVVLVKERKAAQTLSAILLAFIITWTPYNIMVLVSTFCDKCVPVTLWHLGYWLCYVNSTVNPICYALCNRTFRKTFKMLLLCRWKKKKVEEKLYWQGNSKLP
Protocol: as §1, §2, §3, §4

Compound | pEC50 [1] | pEC50 [2]
O=C(C1CC1)N1CCC(N2CCC(N3C(=O)NC[C@H]4CCCC[C@@H]43)CC2)CC1 [Example 3, (4aR,8aS)-1-[1-[1-(cyclopropanecarbonyl)-4-piperidyl]-4-piperidyl]-3,4,4a,5,6,7,8,8a-octahydroquinazolin-2-one] | < 4.31 | < 4.51
CCOC(=O)N1CC[C@H](N2CCC(N3C(=O)CO[C@H]4CCCC[C@@H]43)CC2)C1 [Example 13, Ethyl (3S)-3-[4-[(1S,6S)-9-oxo-7-oxa-10-azabicyclo[4.4.0]dec-10-yl]-1-piperidyl]pyrrolidine-1-carboxylate] | < 4.40 | < 4.40
CCOC(=O)N1CCC(C)(N2CCC(N3C(=O)CO[C@H]4CCCC[C@@H]43)CC2)C1 (single isomer, unassigned) [Example 18] | < 4.40 | < 4.40
CC(C)OC(=O)N1CCC(C)(N2CCC(N3C(=O)NC[C@H]4CCCC[C@@H]43)CC2)CC1 [Example 8, Propan-2-yl 4-[4-[(4aR,8aS)-2-oxo-3,4,4a,5,6,7,8,8a-octahydroquinazolin-1-yl]-1-piperidyl]-4-methyl-piperidine-1-carboxylate] | < 4.40 | < 4.40
Cc1ccccc1C(=O)N1CCC(N2CCC(N3C(=O)NC[C@H]4CCCC[C@@H]43)CC2)CC1 [Example 4, (4aR,8aS)-1-[1-[1-(2-methylbenzoyl)-4-piperidyl]-4-piperidyl]-3,4,4a,5,6,7,8,8a-octahydroquinazolin-2-one] | < 4.31 | < 4.31
CC(C)OC(=O)N1CCC(N2CCC(N3C(=O)N(C)C[C@H]4CCCC[C@@H]43)CC2)CC1 [Example 6, Propan-2-yl 4-[4-[(4aR,8aS)-3-methyl-2-oxo-4a,5,6,7,8,8a-hexahydro-4H-quinazolin-1-yl]-1-piperidyl]piperidine-1-carboxylate] | < 4.40 | < 4.40
CC(C)OC(=O)N1CCC(N2CCC(N3C(=O)CO[C@H]4CCCC[C@@H]43)CC2)CC1 [Example 10, Propan-2-yl 4-[4-[(1S,6S)-9-oxo-7-oxa-10-azabicyclo[4.4.0]dec-10-yl]-1-piperidyl]piperidine-1-carboxylate] | < 4.40 | < 4.40
CCOC(=O)N1CCC(N2CCC(N3C(=O)CO[C@H]4CCCC[C@@H]43)CC2)CC1 [Example 9, Ethyl 4-[4-[(1S,6S)-9-oxo-7-oxa-10-azabicyclo[4.4.0]dec-10-yl]-1-piperidyl]piperidine-1-carboxylate] | < 4.40 | 7.01
CC(C)OC(=O)N1CCC(N2CCC(N3C(=O)NC[C@H]4CCCC[C@@H]43)CC2)CC1 [Example 2, Propan-2-yl 4-[4-[(4aR,8aS)-2-oxo-3,4,4a,5,6,7,8,8a-octahydroquinazolin-1-yl]-1-piperidyl]piperidine-1-carboxylate] | < 4.31 | < 4.31

More lines, now with the values ahead:

pEC50 [1] | pEC50 [2] | Compound
< 4.40 | < 4.40 | CCOC(=O)N1CCC(N2CCC(N3C(=O)OC[C@H]4CCCC[C@@H]43)CC2)CC1 [Example 15, Ethyl 4-[4-[(1S,6S)-9-oxo-8-oxa-10-azabicyclo[4.4.0]dec-10-yl]-1-piperidyl]piperidine-1-carboxylate]
< 4.40 | < 4.40 | CCOC(=O)N1CCC(C)(N2CCC(N3C(=O)CO[C@H]4CCCC[C@@H]43)CC2)C1 (single isomer, unassigned) [Example 19]
< 4.40 | < 4.40 | Cc1ccccc1C(=O)N1CCC(N2CCC(N3C(=O)CO[C@H]4CCCC[C@@H]43)CC2)CC1 [Example 11, (1S,6S)-10-[1-[1-(2-methylbenzoyl)-4-piperidyl]-4-piperidyl]-7-oxa-10-azabicyclo[4.4.0]decan-9-one]
< 4.40 | < 4.40 | Cn1cccc1C(=O)N1CCC(N2CCC(N3C(=O)CO[C@H]4CCCC[C@@H]43)CC2)CC1 [Example 12, (1S,6S)-10-[1-[1-(1-methylpyrrole-2-carbonyl)-4-piperidyl]-4-piperidyl]-7-oxa-10-azabicyclo[4.4.0]decan-9-one]
< 4.40 | < 4.40 | CC(C)OC(=O)N1CCC(N2CCC(N3C(=O)CO[C@@H]4CCCC[C@H]43)CC2)CC1 [Example 14, Propan-2-yl 4-[4-[(1R,6R)-9-oxo-7-oxa-10-azabicyclo[4.4.0]dec-10yl]-1-piperidyl]piperidine-1-carboxylate]
6.16 | 6.77 | CCOC(=O)N1CCC(C)(N2CCC(N3C(=O)NC[C@H]4CCCC[C@@H]43)CC2)CC1 [Example 7, Ethyl 4-[4-[(4aR,8aS)-2-oxo-3,4,4a,5,6,7,8,8a-octahydroquinazolin-1-yl]-1-piperidyl]-4-methyl-piperidine-1-carboxylate]
